Experimental data as given in PMC10495297, “Three new amide derivatives from the fungus Alternaria brassicicola” (Natural Products and Bioprospecting, 2023).

Tests used:
[1] = MTT cytotoxicity assay, HepG2; format: cell-based; conditions: human, HepG2 cells, 0.064 to 40 μM
Protocol: (§1) Compounds 1–6 were tested for the cytotoxicity against six cell lines, including five human cancer cell lines (HepG2, Hep3B, HT-29, HeLa, and OCVAR) and the normal liver cell LO2.
(§2) Compounds 1–6 were evaluated for the cytotoxicity against five human cancer cell lines and normal LO2, including OCVaR, HepG2, HeLa, HT-29, and Hep3B, by a previously reported method The tested cells were purchased from the Cell Bank of Chinese Academy of Science, Shanghai, China. For all cell lines, 5000 cells/ well were seeded into 96-well plates (n = 3) and cultured for 18 h, then exposed to the test compounds at concentrations ranging from 0.064 to 40 μM for 48 h, with cis-platin as the positive control. Briefly, 10 μL/well of MTT was added and cultured for another 4 h before removing medium and adding 100 μL of DMSO. The absorbance at 490 nm was detected, and complete medium containing only 0.1% DMSO was defined as 100% and blank well as 0%. The concentration−response relationships were analyzed using Graphpad Prism Software, version 7.0, and IC50 values derived using nonlinear regression analysis fit to a logistic equation.

[2] = MTT cytotoxicity assay, Hep3B; format: cell-based; conditions: human, Hep3B cells, 0.064 to 40 μM
Protocol: as §1, §2

[3] = MTT cytotoxicity assay, HT-29; format: cell-based; conditions: human, HT-29 cells, HT-29, MTT, 0.064 to 40 μM
Protocol: as §1, §2

[4] = MTT cytotoxicity assay, HeLa; format: cell-based; conditions: human, HeLa cells, 0.064 to 40 μM
Protocol: as §1, §2

[5] = MTT cytotoxicity assay, OCVAR; format: cell-based; conditions: human, OCVAR cells, 0.064 to 40 μM
Protocol: as §1, §2

[6] = MTT cytotoxicity assay, normal liver cell LO2; format: cell-based; conditions: human, LO2 normal liver cells, 0.064 to 40 μM
Protocol: as §1, §2

IKKβ = system: IKKβ; set-up: method as in PMID 30095270; conditions: cited from earlier work
PPAR-γ = system: PPAR-γ; set-up: method as in PMID 30525677; conditions: cited from earlier work

| Compound | IC50 at 48 h [1] | IC50 at 48 h [2] | IC50 at 48 h [3] | IC50 at 48 h [4] | IC50 at 48 h [5] | IC50 at 48 h [6] | IKKβ inhibitory effect (IKKβ) | agonistic action upon PPAR-γ (PPAR-γ) |
| --- | --- | --- | --- | --- | --- | --- | --- | --- |
| COCc1ccc(C=O)n1CCCC(=O)O [Compound 5, 4-[2-formyl-5-(methoxymethyl)-1H-pyrrol-1-yl]butanoic acid] | > 40 µM | > 40 µM | > 40 µM | > 40 µM | > 40 µM | > 40 µM | – | – |
| alterbrassicene A | – | – | – | – | – | – | potent IKKβ inhibitory effect | – |
| CCCCOC(=O)CCCCNC(C)=O [Compound 2, butyl 5-acetamidopentanoate] | > 40 µM | > 40 µM | > 40 µM | > 40 µM | > 40 µM | > 40 µM | – | – |
| alterbrassicicene A | – | – | – | – | – | – | – | strong agonistic action upon PPAR-γ |
